Measured values reported in patent US9187458B2, “Cyanoquinoline derivatives” (Tianjin Hemay Bio-Tech Co., LTD., priority 2010, dated 2015).
pEC50, pIC50: −log10 of the molar value.

How the values were obtained:
MDA-MB-453 cells = test: MDA-MB-453 Cell Growth Inhibition Test (SRB Assay); format: cell-based; details: Homo sapiens, 72 h incubation
Procedure: MDA-MB-453 Cell Growth Inhibition Test (SRB Assay)
Cell strains: MDA-MB-453 (human breast cancer cell strains);
SRB: 0.4% (w/v) working solution was formulated with 1% glacial acetic acid, reserved at 4° C.; antitumor compounds; DMSO
Culture medium: 90% L15+10% FBS;
(§1) 1. A plate (10 cm) of cells in logarithmic growth phase normally cultured was collected;
2. The culture solution was sucked out. The plate was washed with 5 mL of PBS 1-2 times;
3. 1.5 mL of 0.25% pancreatin was added to the plate to infiltrate the cells;
4. The pancreatin was sucked out. The culture plate was placed in an incubator. Digestion was carried out for about 3 min at 37° C.;
5. 4 mL of complete culture solution was added to the culture plate to stop the digestion. The cells were carefully scoured with micropipette (1 ml) to give a uniform single cell suspension. The suspension was implanted into a 96-well cell culture plate by 7000 cells/100 μl per well. The culture plate was incubated overnight under 5% CO2 at 37° C. In day 2, 100 μl of culture solution comprising a compound was added in each well, and further incubated for 72 h under 5% CO2 at 37° C.;
6. The culture solution was sucked out. 100 uL of TCA fixed cells which were diluted to 10% were added to each well. The plate was kept in a refrigerator for 1 h at 4° C.
7. TCA stationary liquid was sucked out. […]
13. OD values were determined at […]. […]

EGFR-TK = target: T1, EGFR-TK (Homo sapiens, UniProt P00533); test: Inhibition Test on EGFR-TK (ELISA, PGT substrate); format: biochemical; details: 20 min at room temperature, read-out: Inhibition Activity (EC50) on EGFR-TK phosphorylation
T1 construct: EGFR-TK: intracellular epidermal growth factor receptor phosphorylase
Procedure: Inhibition Test on EGFR-TK
1. 2 mg/ml of PGT was diluted with PBS to 0.2 mg/ml. The resulting solution was added into elisa plate by 50 μl per well. The plate was placed in a refrigerator at 4° C. and coated overnight.
2. The coating solution was discarded to stop coating. The plate was washed three times with PBS, and then beaten to dryness.
3. The elisa plate was placed in a refrigerator at 4° C., drained out and stood for 2h.
4. The mother liquid of aqueous solution of each compound was diluted with double distilled water to four folds, i.e. a desirable concentration. Then, the compound was diluted and added in the corresponding elisa well by 25 μl/well.
5. […] of ATP solution was diluted with double distilled water to 50 folds and then sufficiently mixed. The resulting solution was separately added in each elisa well by 25 μl per well (except for the negative control).
6. EGFR kinase was diluted with 2×TKB to 800 folds. The solution was added in elisa well with 50 μl per well. Then, the enzyme reaction began. The elisa plate was immediately placed on a micro-oscillator and shaked to react for 20 min at the room temperature.
7. 2% of SDS was added in the elisa well to stop the reaction by adding 100 μl of SDS into each well. The solution was sufficiently mixed on the micro-oscillator to sufficiently mix for about 5 min.
8. The reaction solution was sucked out. The plate was washed four times with PBST. After the plate was beaten to dryness, 0.25 μg/ml of mice anti-phosphorylation tyrosine-HRP antibody which was diluted with blocking solution (3% solution of BSA in PBST) was added in the plate by 100 μl per well. The mixture was reacted for 30 min at the room temperature.
9. The antibody reaction solution was sucked out. The plate was washed four times with PBST. After the plate was beated to dryness, TMB peroxidase substrate was added to the plate by 100 μl/well. The mixture reacted in the dark for 15 min at the room temperature.
10. 100 μl of 2N H2SO4 was added in the plate to stop the chromogenic reaction. After the bubbles were cleansed, OD values were determined in ELIASA at 450 nm.
11. Formula for calculating inhibition percentage: […]

NCI-H358 cells = test: NCI-H358 Cell Growth Inhibition Test (MTT Assay); format: cell-based; details: Homo sapiens, 72 h incubation
Procedure: NCI-H358 Cell Growth Inhibition Test (MTT Assay)
Cell strains: NCI-H358 (human non-small cell lung cancer cell strains);
as §1
2. The culture solution was sucked out. The plate was washed with 5 ml of PBS 1-2 times;
3. PBS was sucked out. 1.5 ml of 0.25% pancreatin was added to infiltrate the cells for 1 min;
4. The culture plate was placed in an incubator. Digestion was carried out for about 5 min at 37° C.;
5. 3 ml of complete culture solution was added to the culture plate to stop the digestion. Tthe cells were carefully scoured with micropipette (1 ml) to give a uniform cell suspension. The suspension was implanted into a 96-well cell culture plate by 10000 cells/100 […] per well. The culture plate was incubated overnight under 5% CO2 at 37° C. In day 2, 100 μA of culture solution comprising a compound was added in each well, and further incubated for 72 h under 5% CO2 at 37° C.
6. The culture solution was sucked out;
7. 100 μA of serum-free culture solution containing 0.5 mg/ml MTT was added in each well, and incubated for 3 h;
8. The culture solution was carefully sucked out;
9. 100 μA of DMSO was added in each well and vibrated to dissolve;
10. OD values were determined at 490 nM.
1. Calculation of Relative Inhibition Ratio The inhibition ratio of a compound on cell growth=(PC−n)/(PC−NC)×100%
IC50: Concentration of a compound where inhibition ratio was 50%. IC50 values were fitted with Origin7.5.

T1 sequence (P00533 669-1210 limits assumed): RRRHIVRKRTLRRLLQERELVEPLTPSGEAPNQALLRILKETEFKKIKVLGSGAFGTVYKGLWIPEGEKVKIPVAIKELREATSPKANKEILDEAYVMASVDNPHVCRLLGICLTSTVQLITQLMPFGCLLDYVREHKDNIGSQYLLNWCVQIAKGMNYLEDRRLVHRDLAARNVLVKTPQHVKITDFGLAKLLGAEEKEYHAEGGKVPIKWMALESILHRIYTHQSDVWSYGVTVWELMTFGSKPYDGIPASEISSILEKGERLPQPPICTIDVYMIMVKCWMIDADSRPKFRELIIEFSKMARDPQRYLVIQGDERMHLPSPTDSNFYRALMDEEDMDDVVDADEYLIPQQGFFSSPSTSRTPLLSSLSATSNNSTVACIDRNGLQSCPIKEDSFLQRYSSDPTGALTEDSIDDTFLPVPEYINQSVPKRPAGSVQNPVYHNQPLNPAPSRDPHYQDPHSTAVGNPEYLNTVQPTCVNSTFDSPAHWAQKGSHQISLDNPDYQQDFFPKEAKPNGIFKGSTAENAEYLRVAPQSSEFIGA

SMILES	pIC50 (MDA-MB-453 cells)	pEC50 (EGFR-TK)	pIC50 (NCI-H358 cells)
CN(C)C/C=C/C(=O)Nc1cc2c(Nc3ccc(OCc4ccccn4)c(Cl)c3)c(C#N)cnc2cc1OC1CCOC1 (centres unmarked) [Example 21, (E)-N-(4-(3-CHLORO-4-(PYRIDIN-2-YL-METHOXY)PHENYLAMINO)-3-CYANO-7-(TETRAHYDROFURAN-3-YL-OXY)QUINOLIN-6-YL)-4-(DIMETHYLAMINO)-BUT-2-ENAMIDE]	–	6.81	–
CN(C)C/C=C/C(=O)Nc1cc2c(Nc3ccc(OCc4ccccn4)c(Cl)c3)c(C#N)cnc2cc1O[C@H]1CCOC1 [Example 138, (S,E)-N-(4-(3-CHLORO-4-(PYRIDIN-2-YL-METHOXY)PHENYLAMINO)-3-CYANO-7-(TETRAHYDROFURAN-3-YL-OXY)QUINOLIN-6-YL)-4-(DIMETHYLAMINO)-BUT-2-ENAMIDE]	–	6.96	7.27
CN(C)C/C=C/C(=O)Nc1cc2c(Nc3ccc(F)c(Cl)c3)c(C#N)cnc2cc1OC1CCOC1 (centres unmarked) [Example 4, (E)-N-(4-(3-CHLORO-4-FLUOROPHENYLAMINO)-3-CYANO-7-(TETRAHYDROFURAN-3-YL-OXY)QUINOLIN-6-YL)-4-(DIMETHYLAMINO)-BUT-2-ENAMIDE]	–	7.38	–

More lines, now with the values ahead:

pIC50 (MDA-MB-453 cells)	pEC50 (EGFR-TK)	pIC50 (NCI-H358 cells)	SMILES
6.30	7.36	–	C#Cc1cccc(Nc2c(C#N)cnc3cc(OC4CCOC4)c(NC(=O)/C=C/CN(C)C)cc23)c1 (centres unmarked) [Example 5, (E)-N-(3-CYANO-4-(3-ETHYNYLPHENYLAMINO)-7-(TETRAHYDROFURAN-3-YL-OXY)QUINOLIN-6-YL)-4-(DIMETHYLAMINO)-BUT-2-ENAMIDE]
–	–	7.11	CC(C)(C)NC/C=C/C(=O)Nc1cc2c(Nc3ccc(OCc4ccccn4)c(Cl)c3)c(C#N)cnc2cc1O[C@H]1CCOC1 [Example 153, (S,E)-N-(4-(3-CHLORO-4-(PYRIDIN-2-YL-METHOXY)PHENYLAMINO)-3-CYANO-7-(TETRAHYDROFURAN-3-YL-OXY)QUINOLIN-6-YL)-4-(TERT-BUTYLAMINO)-BUT-2-ENAMIDE]
–	6.87	–	CN(C)C/C=C/C(=O)Nc1cc2c(Nc3ccc(OCc4cccc(F)c4)c(Cl)c3)c(C#N)cnc2cc1OC1CCOC1 (centres unmarked) [Example 9, (E)-N-(4-(4-(3-FLUOROBENZYLOXY)-3-CHLOROPHENYLAMINO)-3-CYANO-7-(TETRAHYDROFURAN-3-YL-OXY)QUINOLIN-6-YL)-4-(DIMETHYLAMINO)-BUT-2-ENAMIDE]
